Measurements as given in ChEMBL document CHEMBL1201862, “PubChem BioAssay data set” (2004).
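Cultured in 96-well plates, cells were exposed to test compound for 48 hours across five concentrations. GI50 = concentration required for 50% inhibition of growth.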 Calls of active or inactive are those of the source. Cut-off read from the data, not from the text of the source: active = GI50 up to about 1.1 µM and inactive = higher.

What was measured:
Experiment in all cases: inhibition of tumour cell growth, NCI panel, 48 h
786-0 = tested on: 786-0
A549 = tested on: A549
HL-60 = tested on: HL-60
HOP-92 = tested on: HOP-92
KM12 = tested on: KM12
LOX IMVI = tested on: LOX IMVI
M14 = tested on: M14
Malme-3M = tested on: Malme-3M
NCI-H522 = tested on: NCI-H522
NCI/ADR-RES = tested on: NCI/ADR-RES
OVCAR-3 = tested on: OVCAR-3
OVCAR-4 = tested on: OVCAR-4
RXF 393 = tested on: RXF 393
SF-295 = tested on: SF-295
SF-539 = tested on: SF-539
SNB-19 = tested on: SNB-19
SNB-75 = tested on: SNB-75
U-251 = tested on: U-251
UO-31 = tested on: UO-31

Structure (SMILES)	GI50 (786-0)	GI50 (A549)	GI50 (HL-60)	GI50 (HOP-92)	GI50 (KM12)	GI50 (LOX IMVI)	GI50 (M14)	GI50 (Malme-3M)	GI50 (NCI-H522)	GI50 (NCI/ADR-RES)	GI50 (OVCAR-3)	GI50 (OVCAR-4)	GI50 (RXF 393)	GI50 (SF-295)	GI50 (SF-539)	GI50 (SNB-19)	GI50 (SNB-75)	GI50 (U-251)	GI50 (UO-31)
NC(=O)C1CCCN1Cc1ccc2c(c1)OCO2 (stereo unspecified)	> 100 µM (inactive)	> 100 µM (inactive)	> 100 µM (inactive)	> 100 µM (inactive)	> 100 µM (inactive)	> 100 µM (inactive)	> 100 µM (inactive)	> 100 µM (inactive)	> 100 µM (inactive)	> 100 µM (inactive)	> 100 µM (inactive)	> 100 µM (inactive)	> 100 µM (inactive)	> 100 µM (inactive)	> 100 µM (inactive)	> 100 µM (inactive)	> 100 µM (inactive)	> 100 µM (inactive)	> 100 µM (inactive)
COC(=O)/C=C/CCC#Cc1ccccc1C#CCC/C=C/C(=O)OC	4.98 µM (inactive)	15.3 µM (inactive)	2.7 µM (inactive)	15.7 µM (inactive)	4.98 µM (inactive)	4.99 µM (inactive)	8.97 µM (inactive)	3.9 µM (inactive)	3.57 µM (inactive)	8.28 µM (inactive)	3.58 µM (inactive)	16.9 µM (inactive)	4.49 µM (inactive)	13.2 µM (inactive)	10.5 µM (inactive)	4.97 µM (inactive)	2.89 µM (inactive)	4.32 µM (inactive)	19.5 µM (inactive)
Cc1cc(C)c2c(c1)CC1(Cc3cc(C)c(C)cc3C1=O)C2=O (stereo unspecified)	71.9 µM (inactive)	59.4 µM (inactive)	7.1 µM (inactive)	60.5 µM (inactive)	> 100 µM (inactive)	> 100 µM (inactive)	27.7 µM (inactive)	4.75 µM (inactive)	> 100 µM (inactive)	> 100 µM (inactive)	> 100 µM (inactive)	77.8 µM (inactive)	44.9 µM (inactive)	> 100 µM (inactive)	46.2 µM (inactive)	> 100 µM (inactive)	> 100 µM (inactive)	> 100 µM (inactive)	> 100 µM (inactive)
C=C1CC[C@H](O)C(C)(C)[C@@H]1CC/C(C)=C/CC/C=C(\C)CC/C=C(\C)CCC=C(C)C	> 100 µM (inactive)	> 100 µM (inactive)	13.5 µM (inactive)	> 100 µM (inactive)	> 100 µM (inactive)	> 100 µM (inactive)	> 100 µM (inactive)	> 100 µM (inactive)	29 µM (inactive)	> 100 µM (inactive)	> 100 µM (inactive)	> 100 µM (inactive)	13.7 µM (inactive)	> 100 µM (inactive)	> 100 µM (inactive)	> 100 µM (inactive)	> 100 µM (inactive)	> 100 µM (inactive)	> 100 µM (inactive)
Cc1cc(C)c(NC(=S)NC(=O)c2ccccc2)cc1C	> 100 µM (inactive)	> 100 µM (inactive)	> 100 µM (inactive)	> 100 µM (inactive)	> 100 µM (inactive)	> 100 µM (inactive)	> 100 µM (inactive)	> 100 µM (inactive)	> 100 µM (inactive)	> 100 µM (inactive)	> 100 µM (inactive)	61.2 µM (inactive)	> 100 µM (inactive)	34.4 µM (inactive)	> 100 µM (inactive)	> 100 µM (inactive)	> 100 µM (inactive)	64.1 µM (inactive)	> 100 µM (inactive)
CCC(C)C1NC(=O)C(NC(=O)c2c3nc4c(C(=O)NC5C(=O)NC(C(C)CC)C(=O)N6CCCC6C(=O)N(C)CC(=O)N(C)C(C(C)C)C(=O)OC5C)ccc(C)c4oc-3c(C)c(=O)c2O)C(C)OC(=O)C(C(C)C)N(C)C(=O)CN(C)C(=O)C2CCCN2C1=O (stereo unspecified)	3.37 µM (inactive)	2.47 µM (inactive)	2.81 µM (inactive)	6.76 µM (inactive)	1.63 µM (inactive)	0.532 µM (active)	4.2 µM (inactive)	1.98 µM (inactive)	0.295 µM (active)	21.9 µM (inactive)	3.24 µM (inactive)	14.3 µM (inactive)	2.54 µM (inactive)	3.61 µM (inactive)	0.838 µM (active)	11.5 µM (inactive)	2.62 µM (inactive)	1.05 µM (active)	10.4 µM (inactive)
CC(=O)c1c(SCCN2CCCC2)n(-c2ccccc2)c(=S)n(-c2ccccc2)c1=O	1.6 µM (inactive)	5.82 µM (inactive)	3.55 µM (inactive)	3.27 µM (inactive)	23.2 µM (inactive)	2.49 µM (inactive)	2.39 µM (inactive)	3.85 µM (inactive)	2.48 µM (inactive)	26.9 µM (inactive)	2.5 µM (inactive)	29 µM (inactive)	2.3 µM (inactive)	> 76 µM (inactive)	6.12 µM (inactive)	28.4 µM (inactive)	14.6 µM (inactive)	21.1 µM (inactive)	1.4 µM (inactive)
C/C(=N\NC(N)=S)c1sc(-n2nc(-c3ccccc3)cc2-c2ccccc2)nc1C	> 100 µM (inactive)	> 100 µM (inactive)	54.6 µM (inactive)	> 100 µM (inactive)	> 100 µM (inactive)	71.9 µM (inactive)	> 100 µM (inactive)	> 100 µM (inactive)	79.4 µM (inactive)	67.1 µM (inactive)	98.2 µM (inactive)	74.6 µM (inactive)	> 100 µM (inactive)	> 100 µM (inactive)	> 100 µM (inactive)	> 100 µM (inactive)	> 100 µM (inactive)	> 100 µM (inactive)	69.7 µM (inactive)
O=C(c1cccnc1)N1N=C(c2ccccc2)CC1(O)c1cc(F)c(Cl)cc1Cl (stereo unspecified)	22.1 µM (inactive)	27.6 µM (inactive)	21.4 µM (inactive)	20.7 µM (inactive)	25.6 µM (inactive)	15.7 µM (inactive)	22 µM (inactive)	29.2 µM (inactive)	26.1 µM (inactive)	23.5 µM (inactive)	7.31 µM (inactive)	27 µM (inactive)	16.7 µM (inactive)	16.3 µM (inactive)	15.4 µM (inactive)	40 µM (inactive)	16.4 µM (inactive)	16.4 µM (inactive)	25.6 µM (inactive)
O=c1c2cc(S(=O)(=O)O)ccc2nc(COc2ccc(Oc3ccc(Cl)cc3Cl)cc2)n1C(=S)Nc1ccc(Cl)cc1	19.2 µM (inactive)	20.5 µM (inactive)	0.457 µM (active)	18.1 µM (inactive)	22.5 µM (inactive)	16.6 µM (inactive)	20.2 µM (inactive)	21.6 µM (inactive)	17.6 µM (inactive)	17.7 µM (inactive)	21.5 µM (inactive)	23.9 µM (inactive)	15 µM (inactive)	19.9 µM (inactive)	16.8 µM (inactive)	33.4 µM (inactive)	18.8 µM (inactive)	17.2 µM (inactive)	15.8 µM (inactive)
C=[N+](CNC(=O)CNC(=O)C(Cc1ccc([N+](=O)[O-])cc1)NC(=O)OC(C)(C)C)C(=O)CNC(=O)C(Cc1ccc([N+](=O)[O-])cc1)NC(=O)OC(C)(C)C (stereo unspecified)	69.5 µM (inactive)	> 100 µM (inactive)	13.3 µM (inactive)	38.1 µM (inactive)	53.1 µM (inactive)	15.7 µM (inactive)	28.1 µM (inactive)	44.6 µM (inactive)	24.3 µM (inactive)	> 100 µM (inactive)	50.1 µM (inactive)	> 100 µM (inactive)	39.4 µM (inactive)	46.6 µM (inactive)	25.1 µM (inactive)	37 µM (inactive)	32.9 µM (inactive)	39.4 µM (inactive)	> 100 µM (inactive)
COC[C@H]1C(=O)NCC(=O)N2N=CCC[C@H]2C(=O)N(O)[C@H](C)C(=O)O[C@@H](C(C)C)[C@H](NC(=O)[C@@](C)(O)[C@]2(O)CC[C@@H](CC(C)C)[C@H](C)O2)C(=O)N2NCCC[C@@H]2C(=O)N1O	0.0174 µM (active)	0.019 µM (active)	0.0148 µM (active)	0.0174 µM (active)	0.0134 µM (active)	0.0178 µM (active)	0.0183 µM (active)	0.0171 µM (active)	0.0178 µM (active)	0.316 µM (active)	0.0183 µM (active)	0.0168 µM (active)	0.0172 µM (active)	0.0193 µM (active)	0.0172 µM (active)	0.0163 µM (active)	< 0.0109 µM (active)	0.0168 µM (active)	0.169 µM (active)
CN(CCCNC(=O)c1cn(C)c2c1ccc1cc(Cl)ccc12)CCCNC(=O)c1cn(C)c2c1ccc1cc(Cl)ccc12	1.65 µM (inactive)	2.06 µM (inactive)	0.914 µM (active)	3.6 µM (inactive)	1.72 µM (inactive)	1.64 µM (inactive)	1.85 µM (inactive)	2.52 µM (inactive)	1.75 µM (inactive)	2.16 µM (inactive)	1.9 µM (inactive)	2.52 µM (inactive)	1.3 µM (inactive)	2 µM (inactive)	1.99 µM (inactive)	2.39 µM (inactive)	1.57 µM (inactive)	1.71 µM (inactive)	1.41 µM (inactive)
C[C@@H](CC(O)C(O)C(C)(C)O)C1CCC23CC12CCC1[C@@]2(C)CCC(=O)C(C)(C)C2CC(OC2OC(CO)C(O)C(O)C2O)[C@]13C (stereo partly specified)	> 10 µM (inactive)	> 10 µM (inactive)	> 10 µM (inactive)	> 10 µM (inactive)	> 10 µM (inactive)	> 10 µM (inactive)	> 10 µM (inactive)	> 10 µM (inactive)	> 10 µM (inactive)	> 10 µM (inactive)	> 10 µM (inactive)	> 10 µM (inactive)	> 10 µM (inactive)	> 10 µM (inactive)	> 10 µM (inactive)	> 10 µM (inactive)	> 10 µM (inactive)	> 10 µM (inactive)	> 10 µM (inactive)
